Assays:
RET wt = RET wt (Homo sapiens (Human), UniProt P07949); assay: HTRF kinase activity test, RET wt; type: biochemical; conditions: for IC50: HTRF KinEASE-TK; for inhibitory activity on RET wt compared with cabozantinib: comparison in words
RET V804M = RET V804M (Homo sapiens (Human), UniProt P07949, V804M); assay: HTRF kinase activity test, RET V804M; type: biochemical; conditions: for IC50: HTRF KinEASE-TK; for inhibitory activity on RET V804M compared with cabozantinib: comparison in words
RET V804M, sequence (P07949 29-1114 V804M): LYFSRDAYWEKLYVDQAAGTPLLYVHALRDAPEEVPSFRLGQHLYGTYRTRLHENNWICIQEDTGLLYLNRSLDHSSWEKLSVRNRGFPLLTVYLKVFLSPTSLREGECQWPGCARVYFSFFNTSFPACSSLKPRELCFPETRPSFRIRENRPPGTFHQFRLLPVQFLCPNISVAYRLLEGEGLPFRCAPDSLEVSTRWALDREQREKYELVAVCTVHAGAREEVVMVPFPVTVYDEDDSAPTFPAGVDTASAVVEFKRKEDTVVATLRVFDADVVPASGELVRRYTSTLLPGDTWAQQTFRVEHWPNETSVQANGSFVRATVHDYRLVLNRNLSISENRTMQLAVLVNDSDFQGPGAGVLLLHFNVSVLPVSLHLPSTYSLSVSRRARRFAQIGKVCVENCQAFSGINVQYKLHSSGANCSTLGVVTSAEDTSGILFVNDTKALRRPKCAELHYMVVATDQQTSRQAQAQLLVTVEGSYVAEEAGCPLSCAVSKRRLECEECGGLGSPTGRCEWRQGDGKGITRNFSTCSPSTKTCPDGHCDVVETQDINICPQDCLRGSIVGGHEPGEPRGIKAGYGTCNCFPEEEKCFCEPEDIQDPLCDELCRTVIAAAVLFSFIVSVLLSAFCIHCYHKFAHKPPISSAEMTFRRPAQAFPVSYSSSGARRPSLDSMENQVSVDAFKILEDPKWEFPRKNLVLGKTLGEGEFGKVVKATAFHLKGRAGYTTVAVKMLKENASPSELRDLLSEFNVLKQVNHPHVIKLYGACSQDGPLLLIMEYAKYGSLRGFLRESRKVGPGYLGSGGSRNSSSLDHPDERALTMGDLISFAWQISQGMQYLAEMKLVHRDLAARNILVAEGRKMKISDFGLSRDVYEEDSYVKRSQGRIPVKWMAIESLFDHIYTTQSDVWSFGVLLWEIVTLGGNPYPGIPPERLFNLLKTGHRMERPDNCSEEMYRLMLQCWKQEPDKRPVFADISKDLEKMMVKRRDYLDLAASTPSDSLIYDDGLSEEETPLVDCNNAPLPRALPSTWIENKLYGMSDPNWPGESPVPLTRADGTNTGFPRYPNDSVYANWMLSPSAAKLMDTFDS

RET G810R = RET G810R (Homo sapiens (Human), UniProt P07949, G810R); assay: HTRF kinase activity test, RET G810R; type: biochemical; conditions: for IC50: HTRF KinEASE-TK; for inhibitory activity on RET G810R compared with cabozantinib and selpercatinib (LOXO-292): comparison in words
RET G810R, sequence (P07949 29-1114 G810R): as the sequence (P07949 29-1114 V804M) above, with M776V, G782R counted along it

TT Cell = assay: TT cell activity test (CelltiterGlo, 72 h); type: cell-based, human; conditions: for IC50: Homo sapiens, TT cell line, 72 h, CTG; for inhibitory activity on TT cells compared with cabozantinib: comparison in words
Experimental: 2.3 Data Processing % Inhibition (inhibition rate)=100*(HC−test compound well reading)/(HC−LC) • High control (HC, reading control without inhibition): 0.5% DMSO • Low control (LC, control with compound inhibition): 1 μM CEP-32496
The IC50 values were calculated using GraphPad Prism 6 software. Y=Bottom+(Top−Bottom)/(1+10^((Log IC50−X)*HillSlope)); • X: log of cpd concentration; • Y: % inhibition; • Top and Bottom: plateaus in same units as Y; • Log IC50: same log units as X; and • HillSlope: slope factor The Cell Results are Shown in Table 5: […]

[1] = test system: TT cell human medullary thyroid carcinoma xenograft model; assay: Pharmacodynamic test on TT cell human medullary thyroid carcinoma xenograft model; type: in vivo, mice; conditions: 10 mg/kg, oral, twice a day, 28 consecutive days
Experimental: TT tumor cells were cultured in F12K medium containing inactivated 10% fetal bovine serum, 100 U/mL penicillin, 100 μg/mL streptomycin and 2 mM glutamine in an incubator at 37° C. and 5% CO2. The cells were cultured at a starting concentration of 1×10^6 cells/mL, and divided and transferred to flasks for sub-culture every 3 to 4 days when they were overgrown. The tumor cells in the logarithmic growth phase were used for tumor inoculation in vivo.
The TT tumor cells resuspended in serum-free F12K medium at a concentration of 1×10^7 cells+gel/100 μL were inoculated subcutaneously into the right flank of experimental animals. When the tumor grew to about 224 mm^3, the compounds were administered in groups, with 6 animals in each group.
The mice were orally administered with the test compound twice a day for 28 consecutive days.
Tumor volume: the long and short diameters of the tumor were measured using a vernier caliper. The volume was calculated by the formula: volume=0.5×long diameter×short diameter^2. Animals were required to have their body weight and tumor size measured twice a week during the administration.
Reaction of animals after the administration: the experimental animals were weighed while measuring the tumors. The relationship between the change in the animal weight and the time of administration was recorded. At the same time, the survival and health of the mice, such as animal activity, feeding and other general states during the administration were observed.
Relative tumor proliferation rate T/C (%)=TRTV/CRTV×100% (TRTV: treatment group RTV; CRTV: negative control group RTV), where the relative tumor volume (RTV) is calculated as: RTV=Vt/V0, where V0 is the tumor volume measured at the time of group administration (that is, day 1 of the administration), and Vt is the tumor volume at each measurement. Tumor growth inhibition rate TGI (%)=(1−T/C)×100%.

[2] = test system: Ba/F3 cell KIF5B-RET-V804M fusion xenograft model; assay: Pharmacodynamic test on Ba/F3 cell KIF5B-RET-V804M fusion xenograft model; type: in vivo, BALB/c nude mice; conditions: 10 mg/kg; for Tumor growth inhibition rate: oral, twice a day, end of the control experiment (day 8 of the administration); for tumor volume compared with the selpercatinib group: p<0.05
[3] = end of the experiment (day 14 of the administration)

RET wt, sequence (P07949 29-1114): as the sequence (P07949 29-1114 V804M) above, with M776V counted along it

| SMILES | IC50 (RET wt) [nM] | inhibitory activity on RET wt compared with cabozantinib (RET wt) | IC50 (RET V804M) [nM] | inhibitory activity on RET V804M compared with cabozantinib (RET V804M) | IC50 (RET G810R) [nM] | inhibitory activity on RET G810R compared with cabozantinib and selpercatinib (LOXO-292) (RET G810R) | IC50 (TT Cell) [nM] | inhibitory activity on TT cells compared with cabozantinib (TT Cell) | Tumor growth inhibition rate TGI [1] [%] | Tumor growth inhibition rate [2] [%] | tumor volume compared with the selpercatinib group ([2]; day 8 of the administration) | tumor volume compared with the selpercatinib group [2, 3] |
| --- | --- | --- | --- | --- | --- | --- | --- | --- | --- | --- | --- | --- |
| CCOc1cc(-c2ccc(N3CC4CC(C3)N4Cc3ccc(OC)nc3)nc2)c2c3cn[nH]c3nn2c1 [Compound 9, 6-ethoxy-4-(6-(6-((6-methoxypyridin-3-yl)methyl)-3,6-diazabicyclo[3.3.1]heptan-3-yl)pyridin-3-yl)-1H-pyrazolo[3′,4′:3,4]pyrazolo[1,5-a]pyridine] | 0.2 | significantly better than that of cabozantinib | 0.1 | significantly better than that of cabozantinib | 1.9 | significantly better than that of cabozantinib and selpercatinib (LOXO-292) | 5.5 | significantly better than that of cabozantinib | 88.5 | 94 | significantly lower than that of the selpercatinib group | significantly lower than that of the selpercatinib group |
| COc1ccc(CN2C3CC2CN(c2ccc(-c4cc(OCCF)cn5nc6[nH]ncc6c45)cn2)C3)cn1 [Compound 31, 6-(2-fluoroethoxy)-4-(6-(6-((6-methoxypyridin-3-yl)methyl)-3,6-diazabicyclo[3.3.1]heptan-3-yl)pyridin-3-yl)-1H-pyrazolo[3′,4′:3,4]pyrazolo[1,5-a]pyridine] | 0.1 | significantly better than that of cabozantinib | 0.1 | significantly better than that of cabozantinib | 1 | significantly better than that of cabozantinib and selpercatinib (LOXO-292) | 12.7 | significantly better than that of cabozantinib | 87.4 | 92 | significantly lower than that of the selpercatinib group | significantly lower than that of the selpercatinib group |
| COc1ccc(CN2C3CC2CN(c2ccc(-c4cc(OCC(F)F)cn5nc6[nH]ncc6c45)cn2)C3)cn1 [Compound 32, 6-(2,2-difluoroethoxy)-4-(6-(6-((6-methoxypyridin-3-yl)methyl)-3,6-diazabicyclo[3.3.1]heptan-3-yl)pyridin-3-yl)-1H-pyrazolo[3′,4′:3,4]pyrazolo[1,5-a]pyridine] | 0.1 | significantly better than that of cabozantinib | 0.1 | significantly better than that of cabozantinib | 2.3 | significantly better than that of cabozantinib and selpercatinib (LOXO-292) | 6.5 | significantly better than that of cabozantinib | 86.9 | 96 | significantly lower than that of the selpercatinib group | significantly lower than that of the selpercatinib group |
| COc1ccc(CN2C3CC2CN(c2ccc(-c4cc(OCC(C)(C)O)cn5ncc(C#N)c45)cn2)C3)cn1 [Selpercatinib(LOXO-292), Selpercatinib, reference compound] |  |  |  |  |  |  |  |  |  | 49 |  |  |
